Results from ChEMBL document CHEMBL1201862, “PubChem BioAssay data set” (2004).
Activity calls are given as the source filed them.

Tests used:
[1] = HeLa cell cytotoxicity, dose response, cytotoxicity control for MgcRacGAP inhibitor project (AID 624300); assay type: functional
[2] = target: T1, Rac GTPase-activating protein 1 (Homo sapiens, UniProt Q9H0H5); experiment: MgcRacGAP GTPase-activating activity inhibitors, confirmation, biochemical, ADP Hunter fluorescence, primary and confirmatory (AID 624330); assay type: functional
T1 sequence (Q9H0H5 whole entry): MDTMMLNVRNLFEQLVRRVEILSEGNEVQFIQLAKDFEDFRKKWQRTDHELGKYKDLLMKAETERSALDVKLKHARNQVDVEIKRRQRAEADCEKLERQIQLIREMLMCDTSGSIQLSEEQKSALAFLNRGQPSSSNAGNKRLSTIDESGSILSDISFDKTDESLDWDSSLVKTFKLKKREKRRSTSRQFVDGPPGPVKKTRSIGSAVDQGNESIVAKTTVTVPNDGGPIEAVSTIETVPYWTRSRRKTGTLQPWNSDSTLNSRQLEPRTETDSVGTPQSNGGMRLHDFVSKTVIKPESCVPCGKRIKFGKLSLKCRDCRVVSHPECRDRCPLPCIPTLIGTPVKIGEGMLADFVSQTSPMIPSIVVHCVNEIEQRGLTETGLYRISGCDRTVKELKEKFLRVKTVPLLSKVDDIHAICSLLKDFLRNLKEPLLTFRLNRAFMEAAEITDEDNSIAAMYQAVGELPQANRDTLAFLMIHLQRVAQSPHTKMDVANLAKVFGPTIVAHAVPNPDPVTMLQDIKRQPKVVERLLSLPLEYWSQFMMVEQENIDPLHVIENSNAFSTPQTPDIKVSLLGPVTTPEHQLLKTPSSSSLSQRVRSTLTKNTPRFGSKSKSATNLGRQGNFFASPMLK

[3] = Luminescence Cell-Based Dose Confirmation HTS to Identify Inhibitors of Platelet Dense Granule Release. [Related pubchem assays: 1663 (Primary HTS), 1678 (Summary of Project)]; assay type: functional
[4] = target: Luciferin 4-monooxygenase (Photinus pyralis, UniProt P08659); experiment: firefly luciferase enzyme inhibitors, dose response, biochemical, luminescence (AID 1891)
Luciferin 4-monooxygenase, sequence (P08659 whole entry): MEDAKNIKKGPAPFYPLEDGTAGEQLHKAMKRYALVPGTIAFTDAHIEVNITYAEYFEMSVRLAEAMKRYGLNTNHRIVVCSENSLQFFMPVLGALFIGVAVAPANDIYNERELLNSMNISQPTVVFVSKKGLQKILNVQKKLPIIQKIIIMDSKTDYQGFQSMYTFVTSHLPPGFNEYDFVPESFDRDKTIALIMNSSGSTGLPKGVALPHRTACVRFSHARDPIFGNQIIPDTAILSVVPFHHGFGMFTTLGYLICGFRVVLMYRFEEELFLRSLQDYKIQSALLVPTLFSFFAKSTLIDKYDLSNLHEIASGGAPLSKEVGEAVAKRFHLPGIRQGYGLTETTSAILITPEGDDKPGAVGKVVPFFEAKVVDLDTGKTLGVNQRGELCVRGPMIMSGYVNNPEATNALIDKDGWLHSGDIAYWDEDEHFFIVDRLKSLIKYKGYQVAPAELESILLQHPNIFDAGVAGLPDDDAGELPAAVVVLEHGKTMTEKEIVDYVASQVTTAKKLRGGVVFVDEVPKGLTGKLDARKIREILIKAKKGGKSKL

[5] = growth suppression of beta-catenin-knockout colon cells, dose response, cell-based, HCT116, human colon tumor (AID 1045); assay type: functional;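 further: HCT116 colon tumor cells with beta catenin knocked out; cells exposed to compound for 60 hours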
[6] = growth suppression of PTEN-null colon cells, dose response, cell-based, HCT116 PTEN knockout (AID 1047); assay type: functional;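 further: HCT116 colon tumor cells with PTEN knocked out; cells exposed to compound for 60 hours before readout; potency for loss of cell viability measured by luminescence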
[7] = inhibitors of PGC1a acetylation in cells, dose response, cell-based, cherry-picked samples (AID 720514); assay type: functional;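 further: potency may reflect raised or lowered acetylation signal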
[8] = target: Beta-lactamase (Salmonella choleraesuis (strain SC-B67), UniProt Q5J463); experiment: Epi-absorbance-based counterscreen for selective VIM-2 inhibitors: dose response biochemical high throughput screening assay to identify inhibitors of TEM-1 serine-beta-lactamase.
Beta-lactamase (Salmonella choleraesuis (strain SC-B67), UniProt Q5J463), sequence (Q5J463 whole entry): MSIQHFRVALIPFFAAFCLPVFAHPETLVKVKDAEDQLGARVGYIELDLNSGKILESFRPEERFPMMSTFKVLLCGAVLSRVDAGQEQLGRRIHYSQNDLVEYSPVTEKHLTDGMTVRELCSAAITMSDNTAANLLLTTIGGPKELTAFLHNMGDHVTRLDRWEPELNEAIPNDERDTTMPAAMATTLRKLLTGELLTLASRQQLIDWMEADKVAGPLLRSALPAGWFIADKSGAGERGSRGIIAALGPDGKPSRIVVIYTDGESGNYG

[9] = target: T2, Beta-lactamase (Pseudomonas aeruginosa, UniProt Q79MP6); experiment: […] counterscreen for selective VIM-2 inhibitors: dose response biochemical high throughput screening assay to identify inhibitors of IMP-1 metallo-beta-lactamase.
T2 sequence (Q79MP6 whole entry): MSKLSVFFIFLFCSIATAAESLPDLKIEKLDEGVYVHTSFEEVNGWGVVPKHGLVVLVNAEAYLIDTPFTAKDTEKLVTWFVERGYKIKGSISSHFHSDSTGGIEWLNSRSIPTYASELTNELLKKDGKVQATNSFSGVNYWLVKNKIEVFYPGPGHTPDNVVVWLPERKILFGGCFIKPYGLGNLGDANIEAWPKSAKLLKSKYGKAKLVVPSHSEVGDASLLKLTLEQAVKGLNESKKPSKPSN

[10] = target: T2, Beta-lactamase; experiment: IMP-1 metallo-beta-lactamase inhibitors, dose response, selectivity assay for VIM-2 inhibitor project, biochemical, epi-absorbance (AID 1920)
[11] = target: Large T antigen (Simian virus 40, UniProt P03070); assay type: functional, Betapolyomavirus macacae;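 further: Confirmatory-stage PubChem screen for compounds that inhibit SV40 T antigen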
Large T antigen, sequence (P03070 whole entry): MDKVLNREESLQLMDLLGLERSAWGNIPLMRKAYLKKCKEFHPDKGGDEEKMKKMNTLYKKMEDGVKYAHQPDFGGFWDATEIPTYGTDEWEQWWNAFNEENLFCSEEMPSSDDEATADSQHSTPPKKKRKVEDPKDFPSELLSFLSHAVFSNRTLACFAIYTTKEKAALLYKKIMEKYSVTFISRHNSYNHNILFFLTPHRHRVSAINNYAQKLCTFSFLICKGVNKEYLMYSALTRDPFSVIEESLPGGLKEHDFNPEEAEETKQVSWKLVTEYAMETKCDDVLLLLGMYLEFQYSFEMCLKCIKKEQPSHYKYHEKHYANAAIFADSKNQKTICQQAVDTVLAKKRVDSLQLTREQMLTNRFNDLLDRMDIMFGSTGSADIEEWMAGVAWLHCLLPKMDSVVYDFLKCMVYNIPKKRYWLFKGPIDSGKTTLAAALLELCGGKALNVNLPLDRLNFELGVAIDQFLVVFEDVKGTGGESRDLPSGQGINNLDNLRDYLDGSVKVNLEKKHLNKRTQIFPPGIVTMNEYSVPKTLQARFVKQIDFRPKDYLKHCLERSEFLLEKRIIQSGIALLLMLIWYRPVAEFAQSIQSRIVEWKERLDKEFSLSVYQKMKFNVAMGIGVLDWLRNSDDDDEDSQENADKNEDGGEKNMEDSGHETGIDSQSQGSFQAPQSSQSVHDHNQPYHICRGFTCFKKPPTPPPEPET

[12] = target: T3, High affinity choline transporter 1 (Homo sapiens, UniProt Q9GZV3); experiment: CHT inhibitors, dose response, cell-based, 5-point CRC, membrane potential dye (AID 504840); assay type: functional
T3 sequence (Q9GZV3 whole entry): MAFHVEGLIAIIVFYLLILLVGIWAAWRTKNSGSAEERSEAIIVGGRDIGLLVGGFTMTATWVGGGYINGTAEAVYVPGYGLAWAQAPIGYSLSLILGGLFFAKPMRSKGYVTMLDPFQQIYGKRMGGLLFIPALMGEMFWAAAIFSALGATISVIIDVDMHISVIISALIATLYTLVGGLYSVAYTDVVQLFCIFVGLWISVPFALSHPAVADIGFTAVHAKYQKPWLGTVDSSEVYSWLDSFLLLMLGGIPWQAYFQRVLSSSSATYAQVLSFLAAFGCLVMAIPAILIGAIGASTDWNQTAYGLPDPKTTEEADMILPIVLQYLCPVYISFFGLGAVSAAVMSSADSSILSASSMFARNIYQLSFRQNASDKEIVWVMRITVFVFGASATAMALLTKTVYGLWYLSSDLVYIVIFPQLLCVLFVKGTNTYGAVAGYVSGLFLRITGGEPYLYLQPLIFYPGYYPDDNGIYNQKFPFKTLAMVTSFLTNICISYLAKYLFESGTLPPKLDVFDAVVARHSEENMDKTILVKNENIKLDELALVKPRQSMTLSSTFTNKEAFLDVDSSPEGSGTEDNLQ

[13] = target: Disintegrin and metalloproteinase domain-containing protein 17 (Homo sapiens, UniProt P78536); experiment: exosite inhibitors of ADAM17, dose response, biochemical (AID 743260)
Disintegrin and metalloproteinase domain-containing protein 17, sequence (P78536 whole entry, the tested form may be a part): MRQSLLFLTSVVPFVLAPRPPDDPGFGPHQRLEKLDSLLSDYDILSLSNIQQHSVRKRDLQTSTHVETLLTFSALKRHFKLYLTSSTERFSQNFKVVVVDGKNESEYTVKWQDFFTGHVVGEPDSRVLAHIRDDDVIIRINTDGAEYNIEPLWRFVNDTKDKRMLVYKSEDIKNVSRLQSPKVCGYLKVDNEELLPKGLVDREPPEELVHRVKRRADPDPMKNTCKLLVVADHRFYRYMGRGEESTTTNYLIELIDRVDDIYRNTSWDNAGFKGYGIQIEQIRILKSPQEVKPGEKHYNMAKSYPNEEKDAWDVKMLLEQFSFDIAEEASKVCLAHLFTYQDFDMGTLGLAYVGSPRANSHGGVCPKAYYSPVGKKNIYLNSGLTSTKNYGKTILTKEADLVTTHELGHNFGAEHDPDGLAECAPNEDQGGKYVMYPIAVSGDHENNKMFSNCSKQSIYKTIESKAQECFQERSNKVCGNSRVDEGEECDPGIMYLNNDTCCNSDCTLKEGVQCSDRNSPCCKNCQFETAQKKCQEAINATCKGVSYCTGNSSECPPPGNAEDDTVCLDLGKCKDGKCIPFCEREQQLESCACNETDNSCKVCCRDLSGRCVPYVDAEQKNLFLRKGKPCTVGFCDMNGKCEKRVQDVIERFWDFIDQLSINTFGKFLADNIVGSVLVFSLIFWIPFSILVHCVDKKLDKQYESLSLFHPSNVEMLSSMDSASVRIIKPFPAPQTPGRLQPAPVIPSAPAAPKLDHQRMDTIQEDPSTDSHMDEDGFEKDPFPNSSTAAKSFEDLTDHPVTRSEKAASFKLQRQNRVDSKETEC

[14] = tested on: Vero; experiment: cells; assay type: functional; conditions: Chlorocebus sabaeus
[15] = target: T4, Microphthalmia-associated transcription factor (Homo sapiens, UniProt O75030); experiment: TRPM1 promoter luciferase signal decrease, dose response, MITF inhibitor project, cell-based, SK-MEL-5, cherry-picked, set 3 (AID 493073); assay type: functional
T4 sequence (O75030 whole entry): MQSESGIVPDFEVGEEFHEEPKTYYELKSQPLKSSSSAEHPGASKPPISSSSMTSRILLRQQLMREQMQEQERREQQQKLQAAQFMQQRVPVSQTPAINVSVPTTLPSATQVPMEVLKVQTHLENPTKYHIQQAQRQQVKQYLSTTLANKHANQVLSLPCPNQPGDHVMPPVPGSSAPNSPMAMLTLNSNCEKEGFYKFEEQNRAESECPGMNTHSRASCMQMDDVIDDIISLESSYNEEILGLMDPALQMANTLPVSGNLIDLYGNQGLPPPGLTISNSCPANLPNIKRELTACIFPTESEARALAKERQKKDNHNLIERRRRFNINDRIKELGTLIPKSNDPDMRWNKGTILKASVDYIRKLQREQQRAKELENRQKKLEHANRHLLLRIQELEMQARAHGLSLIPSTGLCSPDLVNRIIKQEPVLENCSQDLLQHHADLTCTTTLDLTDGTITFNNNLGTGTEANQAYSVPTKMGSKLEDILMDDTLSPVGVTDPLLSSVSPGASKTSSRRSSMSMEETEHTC

[16] = A375 melanoma cell cytotoxicity, dose response, counter-screen for MITF inhibitor project, CellTiter-Glo luminescence, dry powder, set 2 (AID 624489); assay type: functional, cell-based; conditions: A-375;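 further: actives are compounds lowering A375 viability meaning general cytotoxicity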
[17] = tested on: INS1; experiment: beta cell apoptosis inhibitors, cytokine rescue, dose response, luminescence, retest (AID 449756); assay type: functional, cell-based; conditions: Rattus norvegicus;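 further: cell death triggered by IL-1 beta plus TNF-alpha plus IFN-gamma mixture; protective hits raise ATP signal compared with cytokine alone wells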
[18] = ADAM10 protease inhibitors, dose response, selectivity assay for ADAM17 exosite inhibitor project, biochemical, FRET peptide substrate, recombinant human ADAM10 (AID 743259);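 further: ADAM10 enzyme cleaving a FRET peptide substrate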

For `O=C(Nc1ccccc1C(=O)N/N=C/c1ccc(O)cc1)c1ccccc1`, the CC50 [1] was 39.5 µM (active), the IC50 [2] was 220 µM (active) and the EC50 [3] was 3.65 µM (active). For the same compound, the EC50 [4] was 0.184 µM (active).
For `Cc1ccccc1-n1nnnc1Sc1nnnn1-c1ccccc1`, the EC50 [5] was 4.42 µM (active), the EC50 [6] was 4.94 µM (active) and the AC50 [7] was 10.4 µM (active).
In the case of `O=C(CSc1nnc(NC(=O)c2cccc(F)c2)s1)NCc1ccco1`, the IC50 [8] is reported as > 59.6 µM (inactive), the IC50 [9] is reported as > 59.6 µM (inactive) and the IC50 [10] is reported as > 59.6 µM (inactive).
With `O=C1ON=C(c2ccccc2)/C1=C/c1ccc(O)c(O)c1` the CC50 [1] was 73.7 µM (active), the IC50 [2] was 60 µM (active) and the IC50 [11] was 5.22 µM (active). For the same compound, the IC50 [12] was 4.37 µM (active).
For `C=CCn1c(-c2csc3c2CCC(C)C3)n[nH]c1=S` (stereo not given), the IC50 [13] was > 69.4 µM (inactive).
With `CCOc1cc(/C=C2\C(=O)ON=C2c2ccccc2)cc(Br)c1O` the CC50 [1] was 100 µM (active), the IC50 [2] was 61.2 µM (active) and the CC50 [14] was 17.8 µM (active).
In the case of `CN1CCN(C2=C(NS(=O)(=O)c3cccs3)C(=O)c3ccccc3C2=O)CC1`, the AC50 [15] is reported as 6.98 µM (active), the AC50 [16] is reported as > 70 µM (inactive) and the AC50 [17] is reported as 5.87 µM (active).
With `COc1ccc(N2CCC(CN=C(S)Nc3cccc(OC)c3)C2)cc1` (stereo not given) the IC50 [18] was > 69.5 µM (inactive).
In the case of `O=C(O)C1Sc2[nH]c(=O)sc2C2c3cc(Cl)ccc3OC(=O)C12` (stereo not given), the IC50 [8] is reported as > 59.6 µM (inactive), the IC50 [9] is reported as > 59.6 µM (inactive) and the IC50 [10] is reported as > 59.6 µM (inactive).
